According to patent publication US20160060285A1, “Aminoglycosides, Methods of Synthesis, and Associated Applications” (UTAH STATE UNIVERSITY, priority 2010, published 2016):

What was measured:
[1] = tested on: Escherichia coli ATCC 25922; test: Bacterial growth inhibition (MIC) test, microtiter plate, CLSI protocol; type: cell-based; settings: E. coli 25922; Luria-Bertani medium, 37° C., 24 hours
[2] = tested on: Staphylococcus aureus ATCC25923; test: as above; type: cell-based; settings: S. aureus 25923; 37° C., 24 hours
[3] = tested on: Fusarium graminearum B4-5A; test: microbe, parasite or virus in culture; type: cell-based; settings: F. graminearum B4-5A; RPMI 1640, 35° C., 48 hour
HeLa cells = test: Cell viability assay (MTT), cytotoxicity test; type: cell-based, human; settings: for Viable Cells Percentage Compared to Control: MTT
Description: HeLa cells were grown in commercial DMEM 1× (Gibco) with 10% fetal bovine serum (FBS, Gibco), 100 U/mL penicillin, and 100 μg/mL streptomycin at 37° C. and 5% CO2. The cells were allowed to adhere for 24 h before drug treatment.
The cells were seeded in 96-well microtiter plates (10,000/200 μL). After 24 h of incubation in the media, cells were treated with various concentrations of K608, K4608 and K408 (0.0, 1.0, 10.0, 100.0, 1000 μg/mL and Trition 1×) for 48 h. 20 μL of MTT stock solution (5 mg/mL) was added to each well and incubated for 4 h at 37° C. Upon completion of incubation, the media was carefully removed and washed twice with […] of pbs buffer. Then, 200 μL of DMSO was added to each well; agitated on orbital shaker for 15 min., and the absorbance at 570 nm with 670 nm filter was determined with a microplate reader (Synergy H4). The results are expressed as viability compared with that of control. The experiment was carried out in triplicate in three independent experiments.

[4] = tested on: azole-resistant Candida albicans ATCC 64124; test: Antifungal synergism by checkerboard analysis, K-compound and azole combinations; type: cell-based; settings: for MIC: Candida albicans, compound alone; for MIC with K408: MIC of the labelled azole when combined with K408; for MIC with K4608: MIC of the labelled azole when combined with K4608; for MIC with K4608 / FIC Index (K4608 with azole): one experiment; for FIC Index (K408 with azole): combination of K408 with the labelled azole; for FIC Index (K408 with azole) / FIC Index (K4608 with azole): synergistic if ≦0.5, indifferent if >0.5-4, antagonistic if >4; for FIC Index (K4608 with azole): combination of K4608 with the labelled azole
[5] = ATCC64124, K408 checkerboard table, first of two separate experiments
[6] = ATCC64124, K408 checkerboard table, second of two separate experiments
[7] = ATCC64124, K4608 checkerboard table
[8] = first of two separate experiments
[9] = second of two separate experiments

Compound	MIC [1]	MIC [2]	MIC [3]	other results
CCCCCCCCCCCCCCOC1C(CO)OC(OC2C(N)CC(N)C(OC3OC(CN)C(O)C(O)C3O)C2O)C(O)C1N (stereo not drawn) [Compound K414]	>250 mg per L	>250 mg per L	>500 mg per L	
CCCCCCCOCC1OC(OC2C(N)CC(N)C(OC3OC(CN)C(O)C(O)C3O)C2O)C(O)C(N)C1OCCCCCCC (stereo not drawn) [Compound K4607]	125 mg per L	8-125 mg per L	15.6 mg per L	
CCCCCCCCOC[C@H]1OC(O[C@@H]2C(N)CC(N)C(O[C@H]3OC(CN)[C@@H](O)[C@H](O)C3O)[C@@H]2O)[C@H](O)[C@H](N)C1O (stereo partly drawn) [Compound K608]				toxicity to human cervical cancer cell line HeLa (HeLa cells; 1.0 to 1000 μg/mL, 48 h): not toxic; Viable Cells Percentage Compared to Control (HeLa cells; HeLa, 1 μg/mL, 48 h): 79.47%; Viable Cells Percentage Compared to Control (HeLa cells; HeLa, 10 μg/mL, 48 h): 107.9%; Viable Cells Percentage Compared to Control (HeLa cells; HeLa, 100 μg/mL, 48 h): 75.36%; Viable Cells Percentage Compared to Control (HeLa cells; HeLa, 1000 μg/mL, 48 h): 86.49%; cell viability (HeLa cells; HeLa, at all concentration): ~80%
CCCCCCCCCCOCC1OC(OC2C(N)CC(N)C(OC3OC(CN)C(O)C(O)C3O)C2O)C(O)C(N)C1OCCCCCCCCCC (stereo not drawn) [Compound K4610]	125 mg per L	16 mg per L	>500 mg per L	
C[C@@H](c1ncncc1F)[C@](O)(Cn1cncn1)c1ccc(F)cc1F [voriconazole]				MIC [4, 5]: 7.81 µg/mL; MIC [4, 6]: 7.81 µg/mL; MIC [4, 7]: 7.81 µg/mL; MIC with K408 [4, 8]: 1.95 mg/L; MIC with K408 [4, 9]: 0.81 mg/L; MIC with K4608 [4]: 0.98 mg/L; FIC Index (K408 with azole) [4, 8]: 0.38, 0.38; FIC Index (K408 with azole) [4, 9]: 0.38, 0.38; FIC Index (K4608 with azole) [4]: 0.19
CCC(C)n1ncn(-c2ccc(N3CCN(c4ccc(OCC5COC(Cn6cncn6)(c6ccc(Cl)cc6Cl)O5)cc4)CC3)cc2)c1=O (stereo not drawn) [itraconazole]				MIC [4, 5]: 250 µg/mL; MIC [4, 6]: 250 µg/mL; MIC [4, 7]: > 250 µg/mL; MIC with K408 [4, 8]: 0.98, 0.98 mg L^−1; MIC with K408 [4, 9]: 0.98, 0.98 mg L^−1; MIC with K4608 [4]: 3.91 mg/L; FIC Index (K408 with azole) [4, 8]: 0.25, 0.25; FIC Index (K408 with azole) [4, 9]: 0.25, 0.25; FIC Index (K4608 with azole) [4]: <0.52
CCCCCCCCCOCC1OC(OC2C(N)CC(N)C(OC3OC(CN)C(O)C(O)C3O)C2O)C(O)C(N)C1OCCCCCCCCC (stereo not drawn) [Compound K4609]	16 mg per L	8 mg per L	125 mg per L	
CCCCOCC1OC(OC2C(N)CC(N)C(OC3OC(CN)C(O)C(O)C3O)C2O)C(O)C(N)C1OCCCC (stereo not drawn) [Compound K4604]	>250 mg per L	>250 mg per L	125 mg per L	
CCCCCCCCCCCCCCOCC1OC(OC2C(N)CC(N)C(OC3OC(CN)C(O)C(O)C3O)C2O)C(O)C(N)C1OCCCCCCCCCCCCCC (stereo not drawn) [Compound K4614]	>250 mg per L	>250 mg per L	>500 mg per L	
CCCCCCOC1C(CO)OC(OC2C(N)CC(N)C(OC3OC(CN)C(O)C(O)C3O)C2O)C(O)C1N (stereo not drawn) [Compound K406]	>250 mg per L	8-64 mg per L	>500 mg per L	
CCCCCCCCCCCCOC1C(CO)OC(OC2C(N)CC(N)C(OC3OC(CN)C(O)C(O)C3O)C2O)C(O)C1N (stereo not drawn) [Compound K412]	125-250 mg per L	64 mg per L	>500 mg per L	
